Reference: ChEMBL document CHEMBL5137005, “Development of Dual Inhibitors Targeting Epidermal Growth Factor Receptor in Cancer Therapy” (J Med Chem, 2022)
Blank lines part the entries; values can stand above or below the compound they belong to.

How the values were obtained:
A549 = test: Growth inhibition of human A549 cells; type: functional
A-431 [1] = test: Growth inhibition of human A-431 cells; type: functional
MCF7 [2] = test: Growth inhibition of human MCF7 cells; type: functional
[3] = molecular target: T1, Epidermal growth factor receptor (Homo sapiens, UniProt P00533); test: Inhibition of EGFR (unknown origin)
T1 sequence (P00533 whole entry): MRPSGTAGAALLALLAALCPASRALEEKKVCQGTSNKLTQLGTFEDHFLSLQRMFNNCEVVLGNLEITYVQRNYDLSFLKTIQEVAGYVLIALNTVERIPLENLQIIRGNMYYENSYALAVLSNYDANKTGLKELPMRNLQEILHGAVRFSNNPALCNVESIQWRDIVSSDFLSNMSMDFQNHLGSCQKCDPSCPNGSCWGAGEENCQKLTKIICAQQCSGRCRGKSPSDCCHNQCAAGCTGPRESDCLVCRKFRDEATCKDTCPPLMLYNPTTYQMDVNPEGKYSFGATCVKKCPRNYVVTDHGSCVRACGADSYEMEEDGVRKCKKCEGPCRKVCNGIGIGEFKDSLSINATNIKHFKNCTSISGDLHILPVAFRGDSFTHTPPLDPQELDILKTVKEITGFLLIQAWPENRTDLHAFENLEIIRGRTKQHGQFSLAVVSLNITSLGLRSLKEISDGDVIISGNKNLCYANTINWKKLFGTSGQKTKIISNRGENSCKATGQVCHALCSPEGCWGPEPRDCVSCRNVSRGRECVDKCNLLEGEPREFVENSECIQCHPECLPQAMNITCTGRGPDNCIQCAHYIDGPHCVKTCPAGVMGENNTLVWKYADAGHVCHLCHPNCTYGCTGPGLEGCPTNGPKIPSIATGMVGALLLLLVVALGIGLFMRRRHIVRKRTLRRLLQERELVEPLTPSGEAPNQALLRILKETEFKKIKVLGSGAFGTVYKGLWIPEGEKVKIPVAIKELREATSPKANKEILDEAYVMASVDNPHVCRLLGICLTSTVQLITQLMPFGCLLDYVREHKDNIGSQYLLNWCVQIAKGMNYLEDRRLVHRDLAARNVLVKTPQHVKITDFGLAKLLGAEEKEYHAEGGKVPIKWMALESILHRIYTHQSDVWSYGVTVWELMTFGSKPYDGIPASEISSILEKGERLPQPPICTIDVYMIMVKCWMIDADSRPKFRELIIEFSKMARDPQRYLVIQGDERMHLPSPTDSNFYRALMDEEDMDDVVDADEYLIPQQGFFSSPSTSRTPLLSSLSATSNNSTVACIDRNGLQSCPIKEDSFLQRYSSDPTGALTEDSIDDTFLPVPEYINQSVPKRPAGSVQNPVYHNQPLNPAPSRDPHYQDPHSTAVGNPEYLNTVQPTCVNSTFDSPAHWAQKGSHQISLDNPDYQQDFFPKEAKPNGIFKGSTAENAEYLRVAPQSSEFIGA

[4] = molecular target: Receptor tyrosine-protein kinase erbB-2 (Homo sapiens, UniProt P04626); test: Inhibition of HER2 (unknown origin)
Receptor tyrosine-protein kinase erbB-2, sequence (P04626 whole entry): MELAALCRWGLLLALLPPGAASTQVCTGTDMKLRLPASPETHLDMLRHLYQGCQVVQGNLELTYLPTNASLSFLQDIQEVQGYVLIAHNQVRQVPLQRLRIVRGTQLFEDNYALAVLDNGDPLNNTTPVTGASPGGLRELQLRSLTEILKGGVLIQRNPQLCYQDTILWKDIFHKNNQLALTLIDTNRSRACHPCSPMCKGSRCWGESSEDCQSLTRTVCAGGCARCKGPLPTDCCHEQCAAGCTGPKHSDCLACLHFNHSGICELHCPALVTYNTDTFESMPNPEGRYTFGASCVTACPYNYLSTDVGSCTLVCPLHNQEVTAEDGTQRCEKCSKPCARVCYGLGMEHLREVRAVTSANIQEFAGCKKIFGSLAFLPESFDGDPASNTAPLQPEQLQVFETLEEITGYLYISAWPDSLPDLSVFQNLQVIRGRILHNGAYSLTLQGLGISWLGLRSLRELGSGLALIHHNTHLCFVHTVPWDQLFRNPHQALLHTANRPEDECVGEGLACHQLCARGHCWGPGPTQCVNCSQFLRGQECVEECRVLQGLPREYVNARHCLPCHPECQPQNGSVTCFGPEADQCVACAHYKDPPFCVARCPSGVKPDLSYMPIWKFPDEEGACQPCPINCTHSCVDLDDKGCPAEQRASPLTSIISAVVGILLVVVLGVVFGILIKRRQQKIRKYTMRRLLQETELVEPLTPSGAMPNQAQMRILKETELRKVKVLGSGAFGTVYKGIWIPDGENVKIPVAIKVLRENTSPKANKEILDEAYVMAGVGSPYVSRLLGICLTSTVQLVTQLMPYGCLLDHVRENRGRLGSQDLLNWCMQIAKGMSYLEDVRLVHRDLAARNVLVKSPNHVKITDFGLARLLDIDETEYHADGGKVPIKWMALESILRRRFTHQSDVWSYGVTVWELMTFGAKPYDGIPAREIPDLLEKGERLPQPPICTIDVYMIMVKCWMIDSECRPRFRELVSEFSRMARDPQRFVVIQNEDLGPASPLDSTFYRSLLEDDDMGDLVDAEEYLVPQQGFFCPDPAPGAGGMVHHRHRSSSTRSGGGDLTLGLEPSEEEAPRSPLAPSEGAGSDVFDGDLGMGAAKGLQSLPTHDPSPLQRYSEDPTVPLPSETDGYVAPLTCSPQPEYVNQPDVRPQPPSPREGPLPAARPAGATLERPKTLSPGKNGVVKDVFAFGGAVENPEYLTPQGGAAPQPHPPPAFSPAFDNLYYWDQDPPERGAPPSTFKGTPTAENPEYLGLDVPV

Tubulin [5] = test: Inhibition of tubulin polymerization (unknown origin); type: protein-complex assay, Homo sapiens
[6] = molecular target: T1, Epidermal growth factor receptor; test: Inhibition of EGFR (unknown origin) by microplate reader
[7] = molecular target: Nuclear factor NF-kappa-B complex (Homo sapiens, UniProt P19838+Q00653+Q04206); test: Inhibition of NF-kappaB (unknown origin); type: protein-complex assay
Nuclear factor NF-kappa-B complex, sequence (P19838 1-433 limits assumed): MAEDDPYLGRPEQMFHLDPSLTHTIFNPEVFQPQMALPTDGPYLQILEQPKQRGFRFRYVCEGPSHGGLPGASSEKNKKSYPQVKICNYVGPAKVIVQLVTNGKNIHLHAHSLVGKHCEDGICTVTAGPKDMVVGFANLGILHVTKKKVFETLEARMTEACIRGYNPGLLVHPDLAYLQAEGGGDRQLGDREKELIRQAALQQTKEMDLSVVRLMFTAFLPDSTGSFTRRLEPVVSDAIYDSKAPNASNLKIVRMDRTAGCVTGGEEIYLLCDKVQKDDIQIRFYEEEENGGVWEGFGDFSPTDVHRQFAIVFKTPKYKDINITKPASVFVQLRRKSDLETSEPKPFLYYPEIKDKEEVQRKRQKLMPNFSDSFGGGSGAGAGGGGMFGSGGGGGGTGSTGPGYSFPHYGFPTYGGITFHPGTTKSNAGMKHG
Nuclear factor NF-kappa-B complex, sequence (Q00653 1-454 limits assumed): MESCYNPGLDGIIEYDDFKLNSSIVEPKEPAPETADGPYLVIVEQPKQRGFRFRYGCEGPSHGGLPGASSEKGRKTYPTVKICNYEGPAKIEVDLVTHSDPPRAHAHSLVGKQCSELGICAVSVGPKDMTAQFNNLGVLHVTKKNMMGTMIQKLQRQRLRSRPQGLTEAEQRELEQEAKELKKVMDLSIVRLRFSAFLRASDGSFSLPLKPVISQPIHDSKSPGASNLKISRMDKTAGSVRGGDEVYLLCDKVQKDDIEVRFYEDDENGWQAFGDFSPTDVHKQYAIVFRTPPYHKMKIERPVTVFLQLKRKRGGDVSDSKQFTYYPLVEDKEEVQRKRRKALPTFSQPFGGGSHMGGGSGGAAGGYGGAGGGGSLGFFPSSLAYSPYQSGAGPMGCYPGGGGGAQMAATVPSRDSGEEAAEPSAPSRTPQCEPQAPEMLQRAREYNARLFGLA
Nuclear factor NF-kappa-B complex, sequence (Q04206 whole entry): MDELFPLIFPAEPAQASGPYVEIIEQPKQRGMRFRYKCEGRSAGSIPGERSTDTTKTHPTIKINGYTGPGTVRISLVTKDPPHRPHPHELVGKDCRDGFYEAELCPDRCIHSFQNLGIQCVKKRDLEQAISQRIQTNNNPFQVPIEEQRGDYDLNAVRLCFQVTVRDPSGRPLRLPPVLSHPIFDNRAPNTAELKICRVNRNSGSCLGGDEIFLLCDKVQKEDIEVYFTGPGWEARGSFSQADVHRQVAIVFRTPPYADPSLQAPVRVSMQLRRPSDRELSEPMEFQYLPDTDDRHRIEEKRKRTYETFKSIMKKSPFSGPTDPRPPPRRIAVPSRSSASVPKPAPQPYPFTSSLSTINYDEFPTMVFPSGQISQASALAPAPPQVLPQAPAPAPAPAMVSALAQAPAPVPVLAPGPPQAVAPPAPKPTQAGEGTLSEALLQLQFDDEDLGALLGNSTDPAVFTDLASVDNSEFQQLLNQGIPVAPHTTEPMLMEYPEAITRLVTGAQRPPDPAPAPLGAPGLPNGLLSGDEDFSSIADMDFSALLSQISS

Histone deacetylase = test: Inhibition of HDAC in human HeLa cell nuclear extract using fluorogenic Boc-Lys(acetyl)-AMC as substrate preincubated for 5 mins followed by addition of substrate measured after 20 mins by microplate reader; type: cell-free
A-431 [8] = test: Antiproliferative activity against human A-431 cells overexpressing wildtype EGFR assessed as cell growth inhibition incubated for 24 hrs; type: functional
MCF7 [9] = test: Antiproliferative activity against human MCF7 cells overexpressing HER2 assessed as cell growth inhibition incubated for 24 hrs; type: functional
NCI-H1975 = test: Antiproliferative activity against human H1975 cells overexpressing EGFR T790M/L858R assessed as cell growth inhibition incubated for 24 hrs; type: functional
Histone deacetylase 3 = Histone deacetylase 3 (Homo sapiens, UniProt O15379); test: Inhibition of human recombinant HDAC3 expressed in insect High5 cells using baculovirus expression system using Ac-Lys-Tyr-Lys (epsilon-acetyl)-AMC as substrate incubated for 24 hrs by multilabel plate reader method; parameters: species or system BTI-TN-5B1-4
Histone deacetylase 3, sequence (O15379 whole entry): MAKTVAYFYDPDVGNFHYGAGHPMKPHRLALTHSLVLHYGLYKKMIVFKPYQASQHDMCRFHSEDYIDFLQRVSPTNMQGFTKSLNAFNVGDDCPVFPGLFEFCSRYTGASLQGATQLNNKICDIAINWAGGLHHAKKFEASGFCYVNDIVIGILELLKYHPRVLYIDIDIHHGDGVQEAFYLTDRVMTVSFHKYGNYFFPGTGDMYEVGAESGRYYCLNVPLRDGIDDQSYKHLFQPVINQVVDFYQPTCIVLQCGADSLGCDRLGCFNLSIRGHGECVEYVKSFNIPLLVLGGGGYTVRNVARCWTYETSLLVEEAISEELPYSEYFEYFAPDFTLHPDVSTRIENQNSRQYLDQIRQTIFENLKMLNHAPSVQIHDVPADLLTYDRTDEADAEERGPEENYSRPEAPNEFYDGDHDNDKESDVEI

[10] = molecular target: T2, Protein deacetylase HDAC6 (Homo sapiens, UniProt Q9UBN7); test: Inhibition of human recombinant HDAC6 expressed in insect High5 cells using baculovirus expression system using Boc-Lys (epsilon-acetyl)-AMC as substrate incubated for 3 hrs by multilabel plate reader method; parameters: species or system BTI-TN-5B1-4
T2 sequence (Q9UBN7 whole entry): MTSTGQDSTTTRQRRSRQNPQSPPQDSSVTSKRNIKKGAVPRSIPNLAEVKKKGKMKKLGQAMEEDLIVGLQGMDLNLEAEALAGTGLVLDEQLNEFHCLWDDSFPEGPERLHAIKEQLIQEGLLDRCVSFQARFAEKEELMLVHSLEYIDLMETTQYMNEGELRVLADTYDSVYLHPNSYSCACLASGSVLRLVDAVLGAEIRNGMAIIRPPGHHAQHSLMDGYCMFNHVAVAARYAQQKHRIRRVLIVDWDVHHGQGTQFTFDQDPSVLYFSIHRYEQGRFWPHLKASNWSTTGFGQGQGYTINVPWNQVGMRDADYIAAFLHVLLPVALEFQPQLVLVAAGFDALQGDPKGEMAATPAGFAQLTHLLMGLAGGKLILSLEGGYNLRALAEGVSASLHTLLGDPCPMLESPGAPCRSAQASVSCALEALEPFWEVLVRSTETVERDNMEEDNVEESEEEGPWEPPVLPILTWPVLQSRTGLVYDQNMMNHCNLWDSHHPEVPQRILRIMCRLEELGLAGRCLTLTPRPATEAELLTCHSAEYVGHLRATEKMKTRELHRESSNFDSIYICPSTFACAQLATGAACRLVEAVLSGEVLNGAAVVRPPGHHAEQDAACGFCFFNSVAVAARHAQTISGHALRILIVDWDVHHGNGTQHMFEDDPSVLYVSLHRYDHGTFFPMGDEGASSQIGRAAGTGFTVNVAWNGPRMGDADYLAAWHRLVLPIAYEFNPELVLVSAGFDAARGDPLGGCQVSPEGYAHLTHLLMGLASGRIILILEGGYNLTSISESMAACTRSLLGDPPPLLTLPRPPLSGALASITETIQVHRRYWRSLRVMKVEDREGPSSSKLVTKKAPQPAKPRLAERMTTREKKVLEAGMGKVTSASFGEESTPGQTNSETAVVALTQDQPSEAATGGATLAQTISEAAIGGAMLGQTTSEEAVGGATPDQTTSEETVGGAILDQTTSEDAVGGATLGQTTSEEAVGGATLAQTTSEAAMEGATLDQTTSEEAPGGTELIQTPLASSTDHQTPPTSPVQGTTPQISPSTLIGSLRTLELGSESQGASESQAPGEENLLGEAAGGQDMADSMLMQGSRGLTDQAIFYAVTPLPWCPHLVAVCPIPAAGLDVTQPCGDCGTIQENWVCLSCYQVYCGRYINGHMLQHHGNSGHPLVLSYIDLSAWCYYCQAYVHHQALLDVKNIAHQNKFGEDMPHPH

[11] = molecular target: T1, Epidermal growth factor receptor; test: Inhibition of EGFR (unknown origin) using synthetic biotinylated peptide as substrate […] by microplate reader method relative to control
Histone deacetylase 1 [12] = molecular target: T3, Histone deacetylase 1 (Homo sapiens, UniProt Q13547); test: Inhibition of human recombinant HDAC1 expressed in insect High5 cells using baculovirus expression system using Ac-Lys-Tyr-Lys (epsilon-acetyl)-AMC as substrate incubated for 24 hrs by multilabel plate reader method; parameters: species or system BTI-TN-5B1-4
T3 sequence (Q13547 whole entry): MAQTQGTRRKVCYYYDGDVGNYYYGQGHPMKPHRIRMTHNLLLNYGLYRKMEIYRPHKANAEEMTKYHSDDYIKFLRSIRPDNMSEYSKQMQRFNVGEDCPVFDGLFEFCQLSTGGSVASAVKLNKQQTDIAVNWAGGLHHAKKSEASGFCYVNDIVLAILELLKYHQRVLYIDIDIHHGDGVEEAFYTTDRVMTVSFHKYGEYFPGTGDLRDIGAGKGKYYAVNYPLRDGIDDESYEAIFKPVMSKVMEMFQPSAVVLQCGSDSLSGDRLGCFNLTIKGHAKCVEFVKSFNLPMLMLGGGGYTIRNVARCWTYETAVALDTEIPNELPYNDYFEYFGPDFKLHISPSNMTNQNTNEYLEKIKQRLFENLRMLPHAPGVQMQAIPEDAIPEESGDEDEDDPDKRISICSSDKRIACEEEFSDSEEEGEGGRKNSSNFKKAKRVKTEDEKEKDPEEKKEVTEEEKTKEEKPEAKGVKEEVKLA

[13] = molecular target: T1, Epidermal growth factor receptor; test: Inhibition of EGFR (unknown origin) using biotin as substrate incubated for 2 hrs by HTRF assay
[14] = molecular target: Fibroblast growth factor receptor 4 (Homo sapiens, UniProt P22455); test: Inhibition of FGFR4 (unknown origin) using biotin as substrate incubated for 2 hrs by HTRF assay
Histone deacetylase 1 [15] = molecular target: T3, Histone deacetylase 1; test: Inhibition of HDAC1 (unknown origin)
[16] = molecular target: T2, Protein deacetylase HDAC6; test: Inhibition of HDAC6 (unknown origin)
Tubulin [17] = test: Inhibition of tubulin polymerization (unknown origin) by measuring absorbance; type: protein-complex assay, Homo sapiens
KG-1 = test: Growth inhibition of human KG-1 cells incubated for 72 hrs by MTT assay; type: functional
MDA-MB-468 = test: Growth inhibition of human MDA-MB-468 cells incubated for 72 hrs by MTT assay; type: functional
MDA-MB-231 = test: Growth inhibition of human MDA-MB-231 cells incubated for 72 hrs by MTT assay; type: functional
HT-29 = test: Growth inhibition of human HT-29 cells incubated for 72 hrs by MTT assay; type: functional

GI50 (A549): 1640 nM | GI50 (A-431 [1]): 670 nM | GI50 (MCF7 [2]): 490 nM
SMILES: O=C(Nc1ccc2ncnc(Nc3cccc(Br)c3)c2c1)c1ccc(C(F)(F)F)cc1O

IC50 [3]: 120 nM
SMILES: O=C(/C=C\c1ccc(OC(F)(F)F)cc1)c1ccc(Br)c2cc(-c3ccc(F)cc3)oc12

IC50 [4]: 6 nM
SMILES: CCN1CCN(Cc2ccc(-c3cc4c(N[C@H](C)c5ccccc5)ncnc4[nH]3)cc2)CC1 [AEE-788]

IC50 (Tubulin [5]): > 20000 nM
SMILES: COc1ccc(N(C)c2nc(N)nc3c(Cc4ccccc4)c[nH]c23)cc1

IC50 [6]: 85.4 nM | IC50 (Tubulin [5]): 87.6 nM
SMILES: O=C(Nc1ccccc1C(=O)N/N=C/c1ccc(O)cc1O)c1ccco1

IC50 [7]: 600 nM
SMILES: FC(F)(F)c1csc(NC(=S)Nc2ccc3ncnc(Nc4cccc(Cl)c4)c3c2)n1

IC50 (Histone deacetylase): 105 nM
SMILES: Cn1cc(-c2ccnc(Nc3ccc(C(=O)NCCCCCCC(=O)NO)cc3)n2)c2ccccc21

GI50 (A-431 [8]): 41 nM | GI50 (MCF7 [9]): 94 nM | GI50 (NCI-H1975): 127 nM
SMILES: CC(C)(O)CC(=O)NCCc1ccc2ncnc(Nc3ccc(Oc4cccc(C(F)(F)F)c4)c(Cl)c3)c2c1

IC50 (Histone deacetylase 3): 180 nM | IC50 [10]: 560 nM | inhibition [11]: 9.7% | IC50 (Histone deacetylase 1 [12]): 160 nM
SMILES: COc1cc2ncnc(Nc3cccc(/C=C/C(=O)NO)c3)c2cc1OCCCN1CCOCC1

IC50 [13]: 83.9 nM | IC50 [14]: 86.2 nM
SMILES: COc1cc2ncnc(Oc3ccc(NC(=O)Nc4cccc(C(F)(F)F)c4)c4ccccc34)c2cc1OC

IC50 (Histone deacetylase 1 [15]): 1.1 nM | IC50 [16]: 4.3 nM | IC50 [3]: 10.3 nM
SMILES: O=C(CCCCn1cc(-c2ccc3ncnc(Nc4ccccc4F)c3c2)nn1)NO

IC50 [6]: 31.2 nM | IC50 (Tubulin [5]): 108 nM
SMILES: NS(=O)(=O)c1ccc(NC(=O)c2ccccc2NC(=O)c2ccco2)cc1

IC50 [6]: 86.7 nM | IC50 (Tubulin [17]): 10.7 µM
SMILES: CCOCCSc1nc(-c2ccccc2Cl)nn1CCOCC

IC50 [7]: 300 nM
SMILES: Fc1cc(F)cc(NC(=S)Nc2ccc3ncnc(Nc4cccc(Cl)c4)c3c2)c1

GI50 (MDA-MB-468): 230 nM | GI50 (MDA-MB-231): 600 nM | GI50 (HT-29): 790 nM
SMILES: COc1cc(NC(=O)CCCCCCC(=O)NO)ccc1Nc1nccc(-c2cn(C)c3ccccc23)n1
GI50 (KG-1): 0.24 µM

IC50 (Tubulin [5]): 710 nM
SMILES: COc1cc(Nc2ncnc3cc(-c4ccc(C)cc4)sc23)cc(OC)c1OC

IC50 [7]: 4100 nM
SMILES: S=C(NCc1ccccc1)Nc1ccc2ncnc(Nc3cccc(Br)c3)c2c1

IC50 [4]: 30 nM
SMILES: Cc1c(NC(=O)OC[C@@H]2COCCN2)cn2ncnc(Nc3ccc4c(cnn4Cc4cccc(F)c4)c3)c12 [AC-480]

IC50 [3]: 90 nM
SMILES: COc1ccc(/C=C\C(=O)c2ccc(Br)c3cc(-c4ccc(F)cc4)oc23)cc1
